Consider two compounds from patent US20040023945A1, “CYCLIC AMP-SPECIFIC PHOSPHODIESTERASE INHIBITORS” (ICOS Corporation, priority 1999, published 2004).

Like-named read-outs stand apart in the source and are kept apart here.

For one series, the target named is T1, PDE1B (Homo sapiens, UniProt Q01064).
T1 construct: made in house; host or cells: Saccharomyces cerevisiae BJ2-54
Nature of the series: Inhibition of PDE1B. It is filed as biochemical.

The next series addresses T2, human recombinant PDE4B (Homo sapiens, UniProt Q07343).
T2 construct: made in house; host or cells: Saccharomyces cerevisiae strain YI23 harboring HDUN2.32
Nature of the series: Inhibition of human recombinant PDE4B. It is filed as biochemical. The conditions noted are these: read-out: IC50 vs. human recombinant PDE4B.

The subject of a further series is mouse. Nature of the series: Subjective assessment of mouse immobility (CNS side effects). The format is in vivo. To be noted: subjective assessment of mouse immobility, i.p. 1, 10 and 100 mg/kg, 60 minutes.
The test system of series [1] is serum TNFα levels in LPS-injected mice. Nature of the series: Inhibition of serum TNFα levels in LPS-injected mice (Mouse/TNFα ED50). The format is in vivo. The conditions noted are these: Mus musculus, stereoisomer comparison table; read-out: Mouse/TNFα ED50. On the procedure: In order to assess the ability of a compound to reduce serum TNFα levels in mammals, the following protocol was employed. […] Accordingly, in vivo efficacy of a PDE4 reducing compound was shown by dosing with compound and measuring reduction of serum TNFα levels in LPS-injected mice. Female C3H mice, 20-25 gm body weight, were fasted overnight and dosed intraperitoneally with test compound in appropriate vehicle 60 minutes before LPS injection. Five μg of LPS was then injected intraperitoneally into the mice. Ninety minutes after LPS injection, mice were bled from the heart. Blood was allowed to clot overnight at 4° C. Samples were centrifuged for 10 minutes in a microcentrifuge and the serum removed and stored at −20° C. until analysis. Serum levels of TNFα were subsequently measured using a commercially available ELISA kit (Genzyme) following the protocol enclosed in the kit. The percent of inhibition of serum TNFα levels caused by the compound was determined relative to serum TNFα levels in control mice receiving vehicle alone. […]

For series [2], the system named is human peripheral blood lymphocytes. The experiment in a line: Lipopolysaccharide-stimulated TNFα release from human peripheral blood lymphocytes. It is filed as cell-based. To be noted: Homo sapiens, Lymphocyte, LPS-stimulated TNFα release from human PBL; read-out: PBL/TNFα EC50. An outline of the steps:
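Lymphocytes were isolated by Histopaque from heparinized human blood and plated at 3×10^6 cells/mL. Test compound was added 15 min before LPS ([…]), and cells were incubated 20 h at 37 °C. TNFα in the supernatant was measured by ELISA, and EC50 was taken as 50% inhibition of total TNFα.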

In the next series the target is T3, PDE3A (Homo sapiens, UniProt Q14432).
T3 construct: contained the complete open reading frame of PDE3A; made in house; host or cells: baculovirus-infected Sf9 cells
The experiment in a line: Inhibition of PDE3A. The format is biochemical.

A further series concerns the target T4, PDE1A (Homo sapiens, UniProt P54750).
T4 construct: contained the complete open reading frame of PDE1A3; made in house; host or cells: baculovirus-infected Sf9 cells
The experiment in a line: Inhibition of PDE1A. The format is biochemical.

In the next series the target is T5, PDE5 (Homo sapiens, UniProt O76074).
T5 construct: made in house; host or cells: Saccharomyces cerevisiae BJ2-54
Nature of the series: Inhibition of PDE5. It is filed as biochemical.

Another series deals with T6, PDE1C (Homo sapiens, UniProt Q14123).
T6 construct: contained the complete open reading frame of PDE1C3; made in house; host or cells: baculovirus-infected Sf9 cells
Nature of the series: Inhibition of PDE1C. The format is biochemical.

The next series deals with T7, PDE7 (Homo sapiens, UniProt Q13946).
T7 construct: made in house; host or cells: Saccharomyces cerevisiae BJ2-54
Nature of the series: Inhibition of PDE7. The format is biochemical.

A further series concerns recombinant human PDE4. The experiment in a line: Inhibition of recombinant human PDE4 (cAMP hydrolysis). The conditions noted are these: read-out: PDE4 IC50.
A further series has as its system ferret. The experiment in a line: Emetic modeling in the ferret following oral and intravenous dosing. It is filed as in vivo, Mustela putorius furo. On the procedure: This study was conducted to investigate the emetogenic properties of PDE4 inhibitors in vivo. The ferret previously has been established as a valuable tool for assessing emesis following exposure to test compounds. […] Therefore, lack of and/or decrease in emetic potential of test compounds in ferrets predicts a favorable nonemetic effect in humans. Emesis is a complex physiological response to noxious agents that can be intiated peripherally or centrally.
The test animals were adult, castrated, and descented male ferrets (species=Mustela putorius furo, Strain=Sable) ranging in weight from about 1 to 1.5 kg. The tests were performed in quadruplicate on animals that were naive to PDE4 inhibitors. The PDE4 inhibitors were formulated in 10% Polyoxyl-35 castor oil (CREMOPHOR® EL, available from BASF Corporation, Parsippany, N.J.) in phosphate buffered saline (PBS), and were administered via i.v. injections into an indwelling catheter surgically positioned in the right external jugular vein at a rate of 0.66 mL per kg body weight. PDE4 inhibitors for oral consumption were formulated in 30% CREMOPHOR® EL in PBS, and administered by intubating animals with a 16-gauge feeding needle into the stomach. The animals received the PDE4 inhibitors in a volume of 1.33 mL per kg body weight.
All animals were fasted for 8 to 12 hours prior to administration of PDE4 inhibitors. Following administration of a PDE4 inhibitor, emetic and behavioral responses were quantified for three hours post dosing. The total number of emetic responses and vomiting episodes were quantified during the observation interval. In addition, latency time to first emetic episode, duration of emesis episodes, and gross behavioral changes including ataxia, profuse and viscous salivation, mouth clawing, hyperventilation, backward walking, flattened body posture, hyperactivity, lip licking, and general appearance were recorded.
For comparative purposes, the emetogenic effect of Samples 66 and 69 were tested intravenously at 1.0, 2.5, 5.0, and 10 mg/kg and orally at 2.5, 10, 17, and 25 mg/kg.

In the next series the target is T8, PDE2 (Homo sapiens, UniProt O00408).
T8 construct: made in house; host or cells: Saccharomyces cerevisiae strain YI34
The experiment in a line: Inhibition of PDE2. It is filed as biochemical.

Another series deals with Balb/c mice. The experiment in a line: Mouse locomotor activity assay (decrease in spontaneous mobility). The conditions noted are these: in vivo, ip. On the procedure: The purpose of this study was to determine the efficacy of PDE4 inhibitors in vivo in an LPS mouse model together with a determination with respect to central nervous system (CNS) side-effects manifested by a decrease in spontaneous mobility.
The test animals were female Balb/c mice, having an average weight of about 20 g. The PDE4 inhibitors, formulated in 30% Cremophor® EL, were administered via intraperitoneal (i.p.) injections at doses of 0.1, 1.0, 10.0, and 100 mg/kg. Individual dose volumes (about 150 μL) were adjusted based on the body weights measured. One hour later, 5 mg/kg LPS in a final volume of 200 μL was injected via the tail vein to each animal. Ninety minutes following the LPS treatment, the animals were bled and serum samples were collected before being stored at −70° C. until assayed.
Movement of the X-Y plane, or rearing up on the hind legs, was quantified by counting the number of “light-beam” crosses per unit of time. A decrease in the number of activity events is directly proportional to the mobility or immobilization of the animal. The quantitative scoring correlated well with the subjective measurements described above.

T7 sequence (Q13946 whole entry): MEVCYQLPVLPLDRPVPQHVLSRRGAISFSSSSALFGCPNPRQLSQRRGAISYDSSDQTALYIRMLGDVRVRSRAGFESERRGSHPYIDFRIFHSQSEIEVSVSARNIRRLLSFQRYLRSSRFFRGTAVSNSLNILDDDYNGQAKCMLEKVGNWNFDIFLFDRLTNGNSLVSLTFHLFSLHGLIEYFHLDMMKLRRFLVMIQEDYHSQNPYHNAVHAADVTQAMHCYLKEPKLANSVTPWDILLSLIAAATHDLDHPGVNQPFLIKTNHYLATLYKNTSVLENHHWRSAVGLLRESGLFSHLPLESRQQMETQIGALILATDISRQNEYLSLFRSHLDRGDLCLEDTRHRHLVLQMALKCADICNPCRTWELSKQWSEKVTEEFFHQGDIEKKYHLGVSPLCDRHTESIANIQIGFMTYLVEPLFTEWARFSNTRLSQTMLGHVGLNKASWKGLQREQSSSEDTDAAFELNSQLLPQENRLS
T3 sequence (Q14432 whole entry): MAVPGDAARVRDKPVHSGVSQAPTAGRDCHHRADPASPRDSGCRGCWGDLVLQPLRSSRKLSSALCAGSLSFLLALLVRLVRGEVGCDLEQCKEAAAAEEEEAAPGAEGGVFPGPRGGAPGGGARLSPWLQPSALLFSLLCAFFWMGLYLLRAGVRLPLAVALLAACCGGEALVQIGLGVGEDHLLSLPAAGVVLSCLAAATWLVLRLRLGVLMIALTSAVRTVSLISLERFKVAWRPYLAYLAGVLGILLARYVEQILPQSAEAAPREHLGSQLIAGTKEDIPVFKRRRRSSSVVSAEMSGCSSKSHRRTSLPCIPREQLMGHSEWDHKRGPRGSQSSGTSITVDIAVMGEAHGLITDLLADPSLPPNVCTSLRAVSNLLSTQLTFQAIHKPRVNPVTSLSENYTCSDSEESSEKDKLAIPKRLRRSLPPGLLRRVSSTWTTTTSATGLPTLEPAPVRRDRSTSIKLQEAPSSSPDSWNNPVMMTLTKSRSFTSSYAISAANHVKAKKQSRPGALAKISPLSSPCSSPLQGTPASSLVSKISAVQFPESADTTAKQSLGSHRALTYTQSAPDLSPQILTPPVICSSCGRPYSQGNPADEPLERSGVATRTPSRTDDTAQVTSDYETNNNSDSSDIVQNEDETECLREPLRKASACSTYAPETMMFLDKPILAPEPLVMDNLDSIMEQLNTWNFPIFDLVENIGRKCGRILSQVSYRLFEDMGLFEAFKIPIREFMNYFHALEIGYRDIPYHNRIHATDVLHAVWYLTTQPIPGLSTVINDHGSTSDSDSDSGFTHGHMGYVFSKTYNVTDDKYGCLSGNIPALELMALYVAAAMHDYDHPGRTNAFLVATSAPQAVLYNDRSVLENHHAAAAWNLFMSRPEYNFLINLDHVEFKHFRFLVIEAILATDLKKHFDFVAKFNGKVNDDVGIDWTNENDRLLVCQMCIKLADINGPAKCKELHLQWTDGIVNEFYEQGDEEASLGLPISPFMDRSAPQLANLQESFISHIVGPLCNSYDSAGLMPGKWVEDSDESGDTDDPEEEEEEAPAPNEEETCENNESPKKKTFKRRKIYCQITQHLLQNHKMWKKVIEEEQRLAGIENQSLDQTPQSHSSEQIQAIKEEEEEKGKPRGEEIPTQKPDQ
T2 sequence (Q07343 whole entry): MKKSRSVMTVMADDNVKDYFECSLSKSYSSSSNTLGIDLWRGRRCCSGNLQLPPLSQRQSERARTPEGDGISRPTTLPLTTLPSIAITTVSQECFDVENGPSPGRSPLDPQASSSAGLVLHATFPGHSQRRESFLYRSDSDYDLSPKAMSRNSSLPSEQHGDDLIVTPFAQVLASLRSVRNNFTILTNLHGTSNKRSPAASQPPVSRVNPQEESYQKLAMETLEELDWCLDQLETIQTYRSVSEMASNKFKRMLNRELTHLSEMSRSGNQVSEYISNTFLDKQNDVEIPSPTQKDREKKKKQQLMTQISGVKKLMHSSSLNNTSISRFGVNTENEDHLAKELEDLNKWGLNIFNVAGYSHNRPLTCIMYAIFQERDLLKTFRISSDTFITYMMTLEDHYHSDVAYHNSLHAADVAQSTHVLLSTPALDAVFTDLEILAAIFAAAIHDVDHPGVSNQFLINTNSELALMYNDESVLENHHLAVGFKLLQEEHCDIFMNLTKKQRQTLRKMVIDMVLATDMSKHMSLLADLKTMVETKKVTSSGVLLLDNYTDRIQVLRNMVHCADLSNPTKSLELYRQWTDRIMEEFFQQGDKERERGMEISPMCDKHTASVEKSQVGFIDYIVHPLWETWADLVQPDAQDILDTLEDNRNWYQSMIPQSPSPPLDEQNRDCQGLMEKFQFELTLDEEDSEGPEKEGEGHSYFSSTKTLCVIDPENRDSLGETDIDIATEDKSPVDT
T8 sequence (O00408 whole entry): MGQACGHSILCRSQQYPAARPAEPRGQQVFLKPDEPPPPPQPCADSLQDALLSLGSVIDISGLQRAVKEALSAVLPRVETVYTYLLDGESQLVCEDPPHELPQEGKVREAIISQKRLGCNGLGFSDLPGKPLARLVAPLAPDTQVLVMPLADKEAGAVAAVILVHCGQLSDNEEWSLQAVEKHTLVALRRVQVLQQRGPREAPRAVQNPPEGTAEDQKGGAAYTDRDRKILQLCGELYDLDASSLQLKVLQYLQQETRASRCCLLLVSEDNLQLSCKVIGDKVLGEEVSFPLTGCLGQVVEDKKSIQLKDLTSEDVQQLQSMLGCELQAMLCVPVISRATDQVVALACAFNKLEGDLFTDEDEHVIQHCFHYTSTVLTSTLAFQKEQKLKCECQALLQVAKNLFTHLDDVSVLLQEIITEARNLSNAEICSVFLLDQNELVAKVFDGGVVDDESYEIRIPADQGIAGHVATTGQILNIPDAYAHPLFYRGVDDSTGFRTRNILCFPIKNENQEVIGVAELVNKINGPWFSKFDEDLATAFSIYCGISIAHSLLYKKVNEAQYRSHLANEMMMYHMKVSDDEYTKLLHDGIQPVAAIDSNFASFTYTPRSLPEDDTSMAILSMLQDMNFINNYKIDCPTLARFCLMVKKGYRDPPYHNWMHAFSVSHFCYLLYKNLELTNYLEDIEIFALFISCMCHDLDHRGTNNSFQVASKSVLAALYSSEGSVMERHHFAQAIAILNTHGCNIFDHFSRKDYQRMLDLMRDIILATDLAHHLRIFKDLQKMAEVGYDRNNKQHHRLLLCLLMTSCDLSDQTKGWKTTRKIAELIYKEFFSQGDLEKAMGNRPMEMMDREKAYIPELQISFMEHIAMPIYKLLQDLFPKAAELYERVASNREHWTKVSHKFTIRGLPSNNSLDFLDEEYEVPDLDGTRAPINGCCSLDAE
Method for recombinant human PDE4: The compounds of structural formula (II) were tested for an ability to inhibit PDE4. […] The IC, value for compounds of structural formula (II) were determined using recombinant human PDE4.
Phosphodiesterase activity of the preparations was determined as follows. […] In this assay, PDE activity converts [32P]cAMP or [32P]cGMP to the corresponding [32P]5′-AMP or [32P]5′-GMP in proportion to the amount of PDE activity present. The [32P]5′-AMP or [32P]5′-GMP then was quantitatively converted to free [32P]phosphate and unlabeled adenosine or guanosine by the action of snake venom 5′-nucleotidase. […] The assay was performed at 30° C. in a 100 μL reaction mixture containing (final concentrations) 40 mM Tris HCl (pH 8.0), 1 μM ZnSO4, 5 mM MgCl2, and 0.1 mg/mL bovine serum albumin (BSA). […] PDE enzyme was present in quantities that yield<30% total hydrolysis of substrate (linear assay conditions). The assay was initiated by addition of substrate (1 mM [32P]cAMP or cGMP), and the mixture was incubated for 12 minutes. Seventy-five (75) μg of Crotalus atrox venom then was added, and the incubation was continued for 3 minutes (15 minutes total). The reaction was stopped by addition of 200 μL of activated charcoal (25 mg/mL suspension in 0.1 M NaH2PO4, pH 4). After centrifugation (750×g for 3 minutes) to sediment the charcoal, a sample of the supernatant was taken for radioactivity determination in a scintillation counter and the PDE activity was calculated.

As usually defined, the IC50 is the concentration that gives 50% inhibition. Regarding `COC(=O)N1C[C@@H](c2ccc(OC)c(OC3CCCC3)c2)[C@](C)([C@@H](C)O)C1` [(C)], the concentration for half-maximal inhibition (IC50) came to 100 µM against PDE1B; 0.015 µM at human recombinant PDE4B; 40 µM at PDE3A; 80 µM at PDE1A; 270 µM against PDE5; 12 µM against PDE1C. Moreover, the IC50 on PDE7 is 36 µM; with recombinant human PDE4 (human recombinant PDE4) it was 0.014 µM; in the series with recombinant human PDE4 (stereoisomer comparison table), 0.014 µM; at PDE2, 450 µM. Moreover, the “CNS Side Effects” value in the series with mouse is “No effect”. Also, in [1], the ED50 was found to be 5 mg/kg. Further, in series [2], the EC50 came out at 0.0716 µM. The “Number of Emetic Events: Retches” value is 0 in the series with ferret (intravenous 1.0 mg/kg); 0 in the series on ferret (intravenous 2.5 mg/kg); 10 with ferret (intravenous 5.0 mg/kg); 27 in the series with ferret (intravenous 10.0 mg/kg); 0 in the series with ferret (oral 2.5 mg/kg); 14 in the series on ferret (oral 10.0 mg/kg). The entries for the “Number of Emetic Events: Retches” value with ferret (oral 17.0 mg/kg) and in the series with ferret (oral 25.0 mg/kg) were 17 and 61, respectively. Moreover, the “Number of Emetic Events: Total” value with ferret (intravenous 1.0 mg/kg) worked out at 0; in the series with ferret (intravenous 2.5 mg/kg), 0; with ferret (intravenous 5.0 mg/kg) it was 10; with ferret (intravenous 10.0 mg/kg), 31; in the series on ferret (oral 2.5 mg/kg), 0; with ferret (oral 10.0 mg/kg), 22. Besides, the entries for the “Number of Emetic Events: Total” value in the series on ferret (oral 17.0 mg/kg) and with ferret (oral 25.0 mg/kg) were 18 and 73, respectively. Besides, the “Number of Emetic Events: Vomits” value in the series with ferret (intravenous 1.0 mg/kg) is 0; with ferret (intravenous 2.5 mg/kg), 0; in the series on ferret (intravenous 5.0 mg/kg), 0; in the series with ferret (intravenous 10.0 mg/kg) it was 4; in the series with ferret (oral 2.5 mg/kg), 0; in the series with ferret (oral 10.0 mg/kg) it was 8. Moreover, the “Number of Emetic Events: Vomits” value in the series on ferret (oral 17.0 mg/kg) is given as 1; in the series on ferret (oral 25.0 mg/kg) it was 12. In addition, the Responders in the series with ferret (intravenous 1.0 mg/kg) is reported as 0/4; in the series on ferret (intravenous 2.5 mg/kg) it was 0/4; in the series on ferret (intravenous 5.0 mg/kg) it was 2/4; with ferret (intravenous 10.0 mg/kg), 4/4; in the series with ferret (oral 2.5 mg/kg), 0/4; in the series with ferret (oral 10.0 mg/kg), 2/4. Moreover, the Responders with ferret (oral 17.0 mg/kg) is listed as 2/3; with ferret (oral 25.0 mg/kg), 4/4. Further, the “distress after intravenous dosing” value with ferret (intravenous 10 mg/kg body weight) is recorded as “none displayed the distress”.

In the case of `COc1ccc([C@@H]2CN(C(=O)CNC(=O)OCc3ccccc3)C[C@@]2(C)[C@@H](C)O)cc1OC1Cc2ccccc2C1` [Example 29, N-(2-[3-((1R)-1-Hydroxyethyl)(3S,4S)-4-(3-indan-2-yloxy-4-methoxyphenyl)-3-methylpyrrolidinyl]-2-oxoethyl}(phenylmethoxy)carboxamide], the “ED50, effective dose that decreases spontaneous mobility 50% of control” value in the series on Balb/c mice worked out at 9.8 mg/kg.
